Results reported in paper PMC10824666 (Nature Cancer, 2023).
Read-outs that look alike come from different tables or passages of the source.

Experiments:
Assay in all cases: biochemical
Set-up in all cases: Eurofins DiscoverX kinase panel, competitive binding assay at 1 uM, percent of DMSO control
Conditions in all cases: competitive binding, percent of DMSO control
CAMK4 = target: T1, CAMK4 (Homo sapiens, UniProt Q16566)
T1 sequence (Q16566 1-473): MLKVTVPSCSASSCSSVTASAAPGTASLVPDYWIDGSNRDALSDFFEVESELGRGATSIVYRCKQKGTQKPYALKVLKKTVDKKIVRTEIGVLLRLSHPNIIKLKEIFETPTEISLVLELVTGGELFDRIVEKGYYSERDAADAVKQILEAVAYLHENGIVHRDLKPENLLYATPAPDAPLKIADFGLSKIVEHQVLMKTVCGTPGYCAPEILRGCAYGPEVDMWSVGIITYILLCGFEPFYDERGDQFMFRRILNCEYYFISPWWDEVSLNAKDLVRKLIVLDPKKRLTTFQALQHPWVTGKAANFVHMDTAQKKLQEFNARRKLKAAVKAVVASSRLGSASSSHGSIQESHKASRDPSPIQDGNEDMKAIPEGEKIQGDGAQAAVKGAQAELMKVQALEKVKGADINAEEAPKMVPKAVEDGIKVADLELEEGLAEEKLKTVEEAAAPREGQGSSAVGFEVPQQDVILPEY
Procedure, shortened: (§1)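 Single-point profiling at 1 µM compound in a competition-binding format against 96 kinases, read out as POC relative to control; n = 1.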

MST2 = target: T2, MST2 (Homo sapiens, UniProt Q13188)
T2 construct: gene STK3
T2 sequence (Q13188 1-491): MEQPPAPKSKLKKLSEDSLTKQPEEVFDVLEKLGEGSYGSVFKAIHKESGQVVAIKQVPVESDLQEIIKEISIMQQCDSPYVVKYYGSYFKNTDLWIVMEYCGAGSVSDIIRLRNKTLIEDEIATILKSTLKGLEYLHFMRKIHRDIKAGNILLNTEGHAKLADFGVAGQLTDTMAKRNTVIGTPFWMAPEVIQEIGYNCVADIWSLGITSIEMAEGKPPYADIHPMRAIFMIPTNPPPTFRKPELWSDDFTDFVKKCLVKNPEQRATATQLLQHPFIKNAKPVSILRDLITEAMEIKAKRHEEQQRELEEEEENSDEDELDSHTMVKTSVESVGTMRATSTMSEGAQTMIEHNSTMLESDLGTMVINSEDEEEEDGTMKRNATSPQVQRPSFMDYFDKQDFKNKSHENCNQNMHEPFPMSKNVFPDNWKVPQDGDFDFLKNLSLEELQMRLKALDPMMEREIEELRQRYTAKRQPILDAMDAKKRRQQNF
Procedure, shortened: as §1

PDGFRB = PDGFRB (Homo sapiens, UniProt P09619)
Chain of PDGFRB (P09619 whole entry): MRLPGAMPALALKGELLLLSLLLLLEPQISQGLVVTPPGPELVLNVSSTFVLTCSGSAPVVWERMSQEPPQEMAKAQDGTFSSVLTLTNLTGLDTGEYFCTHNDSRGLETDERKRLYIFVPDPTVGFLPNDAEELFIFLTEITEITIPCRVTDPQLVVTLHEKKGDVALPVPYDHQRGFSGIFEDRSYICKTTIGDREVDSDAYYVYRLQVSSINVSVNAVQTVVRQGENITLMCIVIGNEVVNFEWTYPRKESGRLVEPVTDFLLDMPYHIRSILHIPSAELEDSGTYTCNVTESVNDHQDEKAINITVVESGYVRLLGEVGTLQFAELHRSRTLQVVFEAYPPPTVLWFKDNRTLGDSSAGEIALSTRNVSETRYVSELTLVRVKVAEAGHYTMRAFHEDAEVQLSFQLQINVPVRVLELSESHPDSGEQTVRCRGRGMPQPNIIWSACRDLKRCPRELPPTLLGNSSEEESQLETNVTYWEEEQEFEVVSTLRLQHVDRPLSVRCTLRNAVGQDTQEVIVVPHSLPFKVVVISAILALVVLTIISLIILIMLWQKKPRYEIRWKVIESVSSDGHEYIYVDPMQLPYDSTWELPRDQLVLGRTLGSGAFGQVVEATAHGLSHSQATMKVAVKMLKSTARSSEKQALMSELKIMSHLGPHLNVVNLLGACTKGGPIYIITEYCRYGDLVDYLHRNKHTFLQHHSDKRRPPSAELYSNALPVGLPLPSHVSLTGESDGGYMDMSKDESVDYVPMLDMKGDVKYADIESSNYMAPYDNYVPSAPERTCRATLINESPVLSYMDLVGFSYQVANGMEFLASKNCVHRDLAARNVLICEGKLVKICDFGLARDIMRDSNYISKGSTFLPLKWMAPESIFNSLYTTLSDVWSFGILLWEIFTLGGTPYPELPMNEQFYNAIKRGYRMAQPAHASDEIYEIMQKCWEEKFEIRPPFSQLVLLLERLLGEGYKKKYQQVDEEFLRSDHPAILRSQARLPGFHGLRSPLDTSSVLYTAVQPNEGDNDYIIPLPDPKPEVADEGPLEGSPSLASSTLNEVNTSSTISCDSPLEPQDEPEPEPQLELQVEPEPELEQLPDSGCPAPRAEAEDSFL
Procedure, shortened: as §1

[1] = read-out: Kinome Profiling performed by Eurofins DiscoverX / AM-1882, 1.0 µM / POC
[2] = read-out: Kinome Profiling performed by Eurofins DiscoverX / AM-0277, 1.0 µM / POC
[3] = read-out: Kinome Profiling performed by Eurofins DiscoverX / AM-5308, 1.0 µM / POC

SMILES: CC(C)(C)NS(=O)(=O)c1cccc(NC(=O)c2ccc(S(=O)(=O)NC(C)(C)C)cc2N2CCC3(CC2)CC3)c1 [AM-1882]
- remaining activity at 1 µM (CAMK4; [1]): 99%
- remaining activity at 1 µM (MST2; [1]): 91.5%
- remaining activity at 1 µM (PDGFRB; [1]): 98%

SMILES: CC(C)(CO)Nc1ccc(C(=O)Nc2cccc(S(=O)(=O)C3CCCC3)c2)c(N2CCC3(CC2)CC3)n1 [AM-0277]
- remaining activity at 1 µM (CAMK4; [2]): 81%
- remaining activity at 1 µM (MST2; [2]): 49%
- remaining activity at 1 µM (PDGFRB; [2]): 94%

SMILES: C[C@@H]1CN(c2cccc(NC(=O)c3ccc(NS(=O)(=O)CCO)cc3N3CCC4(CC3)CC4)n2)CCO1 [AM-5308]
- remaining activity at 1 µM (CAMK4; [3]): 100%
- remaining activity at 1 µM (MST2; [3]): 86.5%
- remaining activity at 1 µM (PDGFRB; [3]): 97.5%
